The values below come from ChEMBL document CHEMBL3039007, “Structure-based identification of OATP1B1/3 inhibitors” (Mol Pharmacol, 2013).

Structures can show the parent of a compound that is named as a salt. Residues, ends and D or L forms follow the SMILES beside them. *: point of attachment. Tfa = O=C(C(F)(F)F)*

The target in series [1] is T1, Solute carrier organic anion transporter family member 1B3 (Homo sapiens, UniProt Q9NPD5).
T1 sequence (Q9NPD5 whole entry): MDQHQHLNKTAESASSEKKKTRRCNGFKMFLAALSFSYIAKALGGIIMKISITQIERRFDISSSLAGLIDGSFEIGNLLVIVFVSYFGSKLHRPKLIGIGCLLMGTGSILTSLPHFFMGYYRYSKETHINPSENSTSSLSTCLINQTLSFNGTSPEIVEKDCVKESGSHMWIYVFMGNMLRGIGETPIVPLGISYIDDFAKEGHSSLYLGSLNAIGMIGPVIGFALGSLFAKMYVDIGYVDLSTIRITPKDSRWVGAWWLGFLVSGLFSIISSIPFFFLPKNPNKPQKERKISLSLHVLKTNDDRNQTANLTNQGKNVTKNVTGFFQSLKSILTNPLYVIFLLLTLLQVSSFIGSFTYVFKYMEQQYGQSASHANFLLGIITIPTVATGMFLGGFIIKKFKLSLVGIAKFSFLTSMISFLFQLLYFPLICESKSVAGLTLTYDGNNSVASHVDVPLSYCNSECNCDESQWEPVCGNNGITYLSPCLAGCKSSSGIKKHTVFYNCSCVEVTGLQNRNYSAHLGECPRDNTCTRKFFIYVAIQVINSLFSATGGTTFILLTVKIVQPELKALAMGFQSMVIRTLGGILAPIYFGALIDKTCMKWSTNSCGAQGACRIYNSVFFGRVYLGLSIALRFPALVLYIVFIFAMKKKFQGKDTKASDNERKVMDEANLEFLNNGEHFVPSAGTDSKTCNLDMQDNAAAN
Particulars: chinese hamster, cho, 10 µM.

For series [2], the target named is T2, Solute carrier organic anion transporter family member 1B1 (Homo sapiens, UniProt Q9Y6L6).
T2 sequence (Q9Y6L6 whole entry): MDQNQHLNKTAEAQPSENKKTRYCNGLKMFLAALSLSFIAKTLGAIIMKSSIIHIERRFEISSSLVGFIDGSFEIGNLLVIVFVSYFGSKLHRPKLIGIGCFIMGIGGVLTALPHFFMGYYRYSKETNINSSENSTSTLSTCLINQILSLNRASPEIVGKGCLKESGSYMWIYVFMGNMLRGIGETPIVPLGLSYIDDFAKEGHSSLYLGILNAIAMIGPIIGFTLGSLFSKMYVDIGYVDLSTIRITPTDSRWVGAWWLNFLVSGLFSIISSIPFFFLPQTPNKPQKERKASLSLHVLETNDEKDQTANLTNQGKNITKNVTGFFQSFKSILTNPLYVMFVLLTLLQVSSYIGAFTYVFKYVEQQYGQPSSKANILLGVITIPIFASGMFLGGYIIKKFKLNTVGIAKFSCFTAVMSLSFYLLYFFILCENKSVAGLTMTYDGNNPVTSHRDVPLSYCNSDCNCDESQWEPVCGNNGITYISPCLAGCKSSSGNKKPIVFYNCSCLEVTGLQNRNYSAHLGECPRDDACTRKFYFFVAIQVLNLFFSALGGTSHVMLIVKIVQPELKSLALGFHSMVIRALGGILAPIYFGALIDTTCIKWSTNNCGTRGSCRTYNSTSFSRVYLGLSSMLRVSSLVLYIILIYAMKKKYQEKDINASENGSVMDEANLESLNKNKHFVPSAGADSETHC
The settings on record: chinese hamster, cho, 10 µM.

As usually defined, the residual activity is the signal under treatment as a percentage of the control signal.

As for `Cc1ccc2c(c1)CC[C@H]1CC(=O)CC[C@]21C` [13-METHYL-4,4-BISNOR-8,11,13-PODOCARPATRIEN-3-ONE], the residual activity in series [1] was 93.8%; in series [2], 162.9%.

With `CC(=O)O[C@H]1C[C@@H](OC(C)=O)C(C)(C)[C@@H]2CC(=O)[C@]3(C)[C@H](CC[C@@]4(C)[C@H](C(=O)O)OC(=O)[C@H]5O[C@]543)[C@@]12C`, the residual activity in series [1] came out at 72.75%; in series [2] it was 72.69%.

Regarding `CCCCCCc1ccc(O)cc1O.Nc1c2ccccc2nc2ccccc12` [ACRISORCIN], the residual activity is listed as 120.2% in series [1] and 70.31% in series [2].

As for `Cc1cc(/C=C/c2ccc3cc(N(C)C)ccc3[n+]2C)c(C)n1-c1ccccc1.Cc1cc(/C=C/c2ccc3cc(N(C)C)ccc3[n+]2C)c(C)n1-c1ccccc1.O=C([O-])c1cc2ccccc2c(Cc2c(O)c(C(=O)[O-])cc3ccccc23)c1O` [PYRVINIUM PAMOATE], the residual activity in series [1] is given as 32.66%; in series [2], 42.61%.

With `C[C@H](CCC(=O)O)[C@H]1CC[C@H]2[C@@H]3[C@H](O)C[C@@H]4C[C@H](O)CC[C@]4(C)[C@H]3CC[C@]12C` [CHENODIOL], the residual activity in series [1] came out at 71.62%; in series [2], 37.88%.

As for `COc1cccc(OC)c1C(=O)N[C@@H]1C(=O)N2[C@@H]1SC(C)(C)[C@@H]2C(=O)[O-].[Na+]`, the residual activity was determined as 108.8% in series [1] and 68.38% in series [2].

As for `COc1ccc(CC(=O)c2ccc(O)cc2O)cc1` [ONONETIN], the residual activity in series [1] is listed as 96.22%; in series [2] it was 149.8%.

For `CC(C)(OC(=O)c1ccccc1)[C@@H]1Cc2cc3ccc(=O)oc3cc2O1` [FELAMIDIN], the residual activity in series [1] stood at 168.9%; in series [2], 115.2%.

In the case of `CC1(C)C2(Cl)C(Cl)C(Cl)C(Cl)(C(Cl)Cl)C1(Cl)C2Cl` (centres undefined) [STROBANE], the residual activity in series [1] is 105.4%; in series [2], 106.1%.

For the compound `CCOc1ccc(C(=O)c2ccc(OC)c(O)c2O)cc1` [2,3-DIHYDROXY-4-METHOXY-4'-ETHOXYBENZOPHENONE], the figures for the residual activity in series [1] and in series [2] were 102.2% and 172.8%, respectively.

In the case of `COC(=O)C[C@H]1C(C)(C)[C@@H](O)[C@@H]2CC3=C4C=C(OC)O[C@@H](c5ccoc5)[C@]4(C)CCC3[C@@]1(C)C2=O` (stereo partly drawn) [3-DEOXO-3beta-HYDROXYMEXICANOLIDE 16-ENOL ETHER], the residual activity in series [1] is on record as 106.5%; in series [2], 27.18%.

On to `CCOc1cccc(C(=O)c2ccc(O)c(O)c2O)c1`, for which the figures for the residual activity in series [1] and in series [2] were 108.6% and 134.3%, respectively.

In the case of `Nc1ccc(S(=O)(=O)[N-]c2cnc3ccccc3n2)cc1.[Na+]` [SULFAQUINOXALINE SODIUM], the residual activity in series [1] is reported as 102.9%; in series [2] it was 73.75%.

In the case of `CO[C@H]1C=C[C@@]23c4cc5c(cc4CN(C[C@@H]2O)[C@H]3C1)OCO5`, the residual activity in series [1] was found to be 100.9196%; in series [2] it was 94.19%.

Consider `CC[C@H](C)[C@@H](NC)C(=O)O`, for which the residual activity in series [1] turned out to be 105.9%; in series [2], 122.8%.

On to `O=C(CCBr)N1CCN(C(=O)CCBr)CC1` [PIPOBROMAN], for which the residual activity in series [1] was determined as 82.4%; in series [2], 62.45%.

For `COc1ccc(C(=O)O[C@H]2CC[C@@]3(C)[C@@H]4CC[C@H]5[C@]6(O)C[C@H](O)[C@@]7(O)[C@@H](CN8C[C@@H](C)CC[C@H]8[C@@]7(C)O)[C@]6(O)C[C@@]53O[C@]24O)cc1OC` [VERATRIDINE], the residual activity is 133.7% in series [1] and 82.28% in series [2].

For `C[C@]12C=CC(=O)C=C1CC[C@H]1[C@@H]3C[C@@H](O)[C@](O)(C(=O)CO)[C@@]3(C)C[C@H](O)[C@@]12F` [TRIAMCINOLONE], the residual activity in series [1] is recorded as 81.81%; in series [2] it was 70.81%.

Take `C#CCCCCCCCCCCCC(=O)CC(O)COC(C)=O` (centres undefined) [AVOCADYNONE ACETATE]: the residual activity worked out at 100.5% in series [1] and 124.8% in series [2].

`CC(C)[C@H](NC(=O)[C@H](Cc1ccc(O)cc1)NC(=O)[C@@H](NC(=O)C(F)(F)F)C(C)C)C(=O)O` [Tfa-VAL-TYR-VAL-OH] (Tfa-Val-Tyr-Val-OH): the residual activity in series [1] amounted to 96.81%; in series [2] it was 108%.

For the compound `COc1c(N2CCNC(C)C2)c(F)cc2c(=O)c(C(=O)O)cn(C3CC3)c12` (centres undefined) [GATIFLOXACIN], the residual activity is 96.61% in series [1] and 121.9% in series [2].

Take `C[C@@H]1O[C@@H](O[C@H]2[C@H](O[C@H]3CC[C@]4(C)C5CC=C6[C@@H]7CC(C)(C)CC[C@]7(C(=O)O)CC[C@]6(C)[C@]5(C)CC[C@@H]4[C@]3(C)CO)OC[C@H](O)[C@@H]2O)[C@H](O)[C@H](O)[C@H]1O` (some centres undefined): the residual activity in series [1] is 112.9%; in series [2], 103.8%.

In the case of `CC[C@@]1(O)C[C@H](O)c2c(cc3c(c2O)C(=O)c2c(O)ccc(O)c2C3=O)[C@H]1C(=O)OC` [RUTILANTINONE], the residual activity in series [1] stood at 99.74%; in series [2], 74.91%.

`O=c1oc2c(O)c(O)cc3c(=O)oc4c(O)c(O)cc1c4c23` [ELLAGIC ACID]: the values for the residual activity in series [1] and in series [2] were 65.47% and 75.25%, respectively.

For `Oc1ccc(/C=C/c2cc(O)cc(O)c2)cc1` [RESVERATROL], the residual activity stood at 116.7% in series [1] and 157.6% in series [2].

With `C[C@H](N)CO` [L-ALANINOL], the residual activity in series [1] is recorded as 104%; in series [2], 73.39%.

As to `COc1cc2c(cc1OC)[C@@H]1C(=O)c3ccc(O)c(CC=C(C)C)c3O[C@@H]1CO2` [ROTENONIC ACID], the residual activity in series [1] stood at 99.21%; in series [2], 53.2%.

As to `CC(C)c1ccc2c(c1)CC[C@H]1[C@](C)(C(N)=O)CCC[C@]21C` [DEHYDROABIETAMIDE], the residual activity in series [1] turned out to be 106.2%; in series [2] it was 81.19%.

For the compound `C=C1C2CC[C@H]3[C@]4(C)C[C@H](O[C@H]5O[C@H](CO)[C@@H](OS(=O)(=O)[O-])[C@H](OS(=O)(=O)[O-])[C@H]5OC(=O)CC(C)C)C[C@@H](C(=O)O)[C@H]4CC[C@]3(C2)[C@H]1O.[K+].[K+]`, the residual activity in series [1] was found to be 92.24%; in series [2], 100%.

Turning to `Cc1ccsc1/C=C/C1=NCCCN1C.O=C(O)CC(O)(CC(=O)O)C(=O)O` [MORANTEL CITRATE], the residual activity in series [1] turned out to be 103.6%; in series [2] it was 115.3%.

On to `CN1CCc2c(c3ccccc3n2Cc2ccccc2)C1.CN1CCc2c(c3ccccc3n2Cc2ccccc2)C1.O=S(=O)(O)c1cccc2c(S(=O)(=O)O)cccc12`, for which the residual activity in series [1] is reported as 77.15%; in series [2], 69.52%.

Turning to `C=C1CCC(C2CC(=O)OC2=O)C(=O)CCC2C1CC2(C)C` (centres undefined) [2-METHYLENE-5-(2,5-DIOXOTETRAHYDROFURAN-3-YL)-6-OXO--10,10-DIMETHYLBICYCLO[7: 2: 0]UNDECANE], the values for the residual activity in series [1] and in series [2] were 47.58% and 29.82%, respectively.
